# Data: ChEMBL document CHEMBL4257490, “Development of a peptide-based bifunctional chelator conjugated to a cytotoxic drug for the treatment of melanotic melanoma” (Medchemcomm, 2018)
# Active and inactive are the calls of the source. The calls are words filed in the database; no cut-off is given here. Residues, ends and D or L forms follow the SMILES beside them. *: point of attachment. X1 = O=c1nc(N*)ccn1[C@@H]1O[C@H](CO)[C@@H](O)C1(F)F
# What was measured:
# [1] = system: B16-F10; assay: Ratio of drug uptake in mouse B16F10 cells at 20 ug/ml after 4 hrs by flow cytometric method to drug uptake in mouse B16F10 cells at 20 ug/ml after 30 mins by flow cytometric method; assay type: ADME, cell-based
# [2] = Hemolytic activity in rat erythrocytes at 100 uM after 1 hr relative to control; assay type: ADME, cell-based, Erythrocyte; settings: read-out: Activity
# [3] = Stability in saline assessed as parent compond remaining using 99mTc(CO)3-labeled compound after 24 hrs by TLC method; assay type: physicochemical; settings: read-out: Stability
# [4] = Metabolic stability in rat serum assessed as parent compound remaining using 99mTc(CO)3-labeled compound after 24 hrs by TLC method; assay type: ADME, cell-free; settings: read-out: Stability
# [5] = Drug degradation in histidine solution using 99mTc(CO)3-labeled compound after 24 hrs by TLC method; assay type: physicochemical; settings: read-out: Drug degradation
# [6] = Drug uptake in mouse B16F10 cells using 99mTc(CO)3-labeled compound at 15 to 20 MBq/ml after 30 mins by gamma scintillation counting method relative to total added activity; assay type: ADME, cell-based; settings: b16-f10, 0.5 h
# [7] = Drug uptake in mouse B16F10 cells using 99mTc(CO)3-labeled compound at 15 to 20 MBq/ml after 240 mins by gamma scintillation counting method relative to total added activity; assay type: ADME, cell-based; settings: b16-f10, 4 h
# [8] = Drug uptake in heart of Balb/c mouse allografted with mouse B16F10 cells using 99mTc(CO)3-labeled compound at 10 to 12 MBq/kg, iv measured at 2 hrs; assay type: ADME, organism-based; settings: in vivo
# [9] = Drug uptake in blood of Balb/c mouse allografted with mouse B16F10 cells using 99mTc(CO)3-labeled compound at 10 to 12 MBq/kg, iv measured at 2 hrs; assay type: ADME, organism-based; settings: in vivo
# [10] = Drug uptake in lung of Balb/c mouse allografted with mouse B16F10 cells using 99mTc(CO)3-labeled compound at 10 to 12 MBq/kg, iv measured at 2 hrs; assay type: ADME, organism-based; settings: in vivo
# [11] = Drug uptake in spleen of Balb/c mouse allografted with mouse B16F10 cells using 99mTc(CO)3-labeled compound at 10 to 12 MBq/kg, iv measured at 2 hrs; assay type: ADME, organism-based; settings: in vivo
# [12] = Drug uptake in tumor muscle of Balb/c mouse allografted with mouse B16F10 cells using 99mTc(CO)3-labeled compound at 10 to 12 MBq/kg, iv measured at 2 hrs; assay type: ADME, organism-based; settings: in vivo
# [13] = Drug uptake in intestine of Balb/c mouse allografted with mouse B16F10 cells using 99mTc(CO)3-labeled compound at 10 to 12 MBq/kg, iv measured at 2 hrs; assay type: ADME, organism-based; settings: in vivo
# [14] = Drug uptake in urine of Balb/c mouse allografted with mouse B16F10 cells using 99mTc(CO)3-labeled compound at 10 to 12 MBq/kg, iv measured at 2 hrs; assay type: ADME, organism-based; settings: in vivo
# [15] = Ratio of drug level in tumor to muscle of Balb/c mouse allografted with mouse B16F10 cells using 99mTc(CO)3-labeled compound at 10 to 12 MBq/kg, iv measured at 2 hrs; assay type: ADME, organism-based, Tumor/tissue; settings: in vivo
# [16] = Drug uptake in heart of Balb/c mouse allografted with mouse B16F10 cells using 99mTc(CO)3-labeled compound at 10 to 12 MBq/kg, iv measured at 4 hrs; assay type: ADME, organism-based; settings: in vivo
# [17] = Drug uptake in blood of Balb/c mouse allografted with mouse B16F10 cells using 99mTc(CO)3-labeled compound at 10 to 12 MBq/kg, iv measured at 4 hrs; assay type: ADME, organism-based; settings: in vivo
# [18] = Drug uptake in lung of Balb/c mouse allografted with mouse B16F10 cells using 99mTc(CO)3-labeled compound at 10 to 12 MBq/kg, iv measured at 4 hrs; assay type: ADME, organism-based; settings: in vivo
# [19] = Drug uptake in spleen of Balb/c mouse allografted with mouse B16F10 cells using 99mTc(CO)3-labeled compound at 10 to 12 MBq/kg, iv measured at 4 hrs; assay type: ADME, organism-based; settings: in vivo
# [20] = Drug uptake in muscle of Balb/c mouse allografted with mouse B16F10 cells using 99mTc(CO)3-labeled compound at 10 to 12 MBq/kg, iv measured at 4 hrs; assay type: ADME, organism-based, Muscle tissue; settings: in vivo
# [21] = Drug uptake in tumor muscle of Balb/c mouse allografted with mouse B16F10 cells using 99mTc(CO)3-labeled compound at 10 to 12 MBq/kg, iv measured at 4 hrs; assay type: ADME, organism-based; settings: in vivo
# [22] = Drug uptake in kidney of Balb/c mouse allografted with mouse B16F10 cells using 99mTc(CO)3-labeled compound at 10 to 12 MBq/kg, iv measured at 4 hrs; assay type: ADME, organism-based; settings: in vivo
# [23] = Drug uptake in intestine of Balb/c mouse allografted with mouse B16F10 cells using 99mTc(CO)3-labeled compound at 10 to 12 MBq/kg, iv measured at 4 hrs; assay type: ADME, organism-based; settings: in vivo
# [24] = Drug uptake in stomach of Balb/c mouse allografted with mouse B16F10 cells using 99mTc(CO)3-labeled compound at 10 to 12 MBq/kg, iv measured at 4 hrs; assay type: ADME, organism-based; settings: in vivo
# [25] = Drug uptake in urine of Balb/c mouse allografted with mouse B16F10 cells using 99mTc(CO)3-labeled compound at 10 to 12 MBq/kg, iv measured at 4 hrs; assay type: ADME, organism-based; settings: in vivo
# [26] = Ratio of drug level in tumor to muscle of Balb/c mouse allografted with mouse B16F10 cells using 99mTc(CO)3-labeled compound at 10 to 12 MBq/kg, iv measured at 4 hrs; assay type: ADME, organism-based, Tumor/tissue; settings: in vivo
# [27] = system: B16-F10; assay: Cytotoxicity against mouse B16F10 cells assessed as decrease in cell viability after 72 hrs by MTT assay; assay type: functional, cell-based; settings: B16-F10, 72 h
# [28] = Drug uptake in kidney of Balb/c mouse allografted with mouse B16F10 cells using 99mTc(CO)3-labeled compound at 4 to 8 MBq, iv measured at 4 hrs by scintigraphic imaging method; assay type: ADME, organism-based; settings: in vivo
# [29] = Drug uptake in liver of Balb/c mouse allografted with mouse B16F10 cells using 99mTc(CO)3-labeled compound at 4 to 8 MBq, iv measured at 4 hrs by scintigraphic imaging method; assay type: ADME, organism-based; settings: in vivo
# [30] = Drug uptake in gastrointestinal tract of Balb/c mouse allografted with mouse B16F10 cells using 99mTc(CO)3-labeled compound at 4 to 8 MBq, iv measured at 4 hrs by scintigraphic imaging method; assay type: ADME, organism-based; settings: in vivo
# [31] = system: B16-F10; assay: Induction of apoptosis in mouse B16F10 cells assessed as necrotic cells at IC50 after 72 hrs by annexin V-FITC/propidium iodide staining-based flow cytometric method relative to control; assay type: functional
# [32] = system: B16-F10; assay: Induction of apoptosis in mouse B16F10 cells assessed as nuclear fragmentation at IC50 after 72 hrs by DAPI staining-based fluorescence microscopic method; assay type: functional, cell-based
# [33] = system: Mus musculus; assay: Toxicity in mouse B16F10 cells allografted Balb/c mouse assessed as effect on body weight at 25 mg/kg, iv administered thrice weekly for 21 days starting on day 10 post tumor implantation (reference value: 30.52 +/- 2.9 g); assay type: organism-based; settings: in vivo, 504 h
# [34] = system: B16-F10; assay: Antitumor activity against mouse B16F10 cells allografted in Balb/c mouse assessed as decrease in formation of new blood vessels in tumor at 25 mg/kg, iv administered thrice weekly for 21 days starting on day 10 post tumor implantation by haematoxylin and eosin staining-based method; assay type: functional, organism-based
# [35] = Drug uptake in mouse B16F10 cells using 99mTc(CO)3-labeled compound at 15 to 20 MBq/ml after 240 mins by gamma scintillation counting method; assay type: ADME, cell-based; settings: b16-f10, 4 h
smiles,measurement,setting,value
NCCCC[C@H](NC(=O)CNC(=O)[C@H](Cc1cnc[nH]1)NC(=O)[C@H](CCCCN)NC(=O)[C@H](Cc1ccc(O)cc1)NC(=O)[C@@H](N)Cc1cnc[nH]1)C(=O)N[C@@H](CC(=O)Nc1ccn([C@@H]2O[C@H](CO)[C@@H](O)C2(F)F)c(=O)n1)C(N)=O (H-HYKHGKD(X1)-NH2),Ratio,[1],4.4
same,"hemolysis at 1 h, 100 µM",[2],7 to 9%
same,remaining at 24 h,[3],≥ 92%
same,remaining at 24 h,[4],≥ 92%
same,degraded at 24 h,[5],5%
same,Drug uptake,[6],4.99%
same,Drug uptake,[7],9.87%
same,Drug uptake,[8],0.06 % ID/g
same,Drug uptake,[9],1.79 %ID/ml
same,Drug uptake,[10],0.4 % ID/g
same,Drug uptake,[11],0.69 % ID/g
same,Drug uptake,[12],1.71 % ID/g
same,Drug uptake,[13],8.51 % ID/g
same,Drug uptake,[14],41.21 %ID/ml
same,Ratio,[15],10.64
same,Drug uptake,[16],0.04 % ID/g
same,Drug uptake,[17],1.58 %ID/ml
same,Drug uptake,[18],0.25 % ID/g
same,Drug uptake,[19],0.45 % ID/g
same,Drug uptake,[20],0.15 % ID/g
same,Drug uptake,[21],2.81 % ID/g
same,Drug uptake,[22],16.25 % ID/g
same,Drug uptake,[23],6.28 % ID/g
same,Drug uptake,[24],0.17 % ID/g
same,Drug uptake,[25],48.21 %ID/ml
same,Ratio,[26],18.73
same,IC50,[27],0.12 µM
same,Drug uptake,[28],Active
same,Drug uptake,[29],Active
same,Drug uptake,[30],Active
same,Activity,[31],12 - 14%
same,Activity,[32],Active
same,Activity,[33],25.15 g
same,Activity,[34],Active
same,Drug uptake,[35],80%
